Data taken from patent US10718770B2, “Methods for screening compounds for treating or preventing a viral infection or a virus-related condition” (ABIVAX, priority 2015, dated 2020).

Key:
[1] = system: Rev-mediated export of viral RNA; experiment: HIV reporter system (MS2-GFP) in HeLa cells: Rev-mediated export of viral RNA; format: cell-based; conditions: in the absence of Rev, data not shown
Text: FIG. 8. Compound 1 influences Rev-mediated HIV RNA biogenesis and export. A) Schematic representation of the HIV-1 reporter gene B) Visualization of GFP-MS2-Bound RNA in HeLa cells expressing tat, MS2-GFP and HIV-reporter transcripts in non transfected or transfected cells with Rev. Rev-transfected cells were untreated (DMSO) or treated with Compound 1. Arrow indicates transcription site. C) Quantitation of images corresponding to untreated (DMSO) or treated (Compound 1) in (B), in terms of: total GFP (upper panel) expressed in RFU or Relative Fluorescence Units; in the nucleoplasm (middle panel) expressed in Number of Foci in Rev-transfected cells; or at the start site (lower panel) expressed as a percentage of nuclei with a starting transcription point. Box-plots show the average GFP intensity (foci numbers or starting transcription point numbers) of Rev-transfected HeLa cells for each condition. Whiskers correspond to the minimum and maximum, boxes, to the 25-75 percentiles and the band inside the box, to the median. […]
Cells plated on cover slips were fixed for 10 min in 3.7% formaldehyde (in PBS) followed by a 2-min permeabilization with 0.1% Triton X-100 (in PBS) and incubation in PBS containing 0.1% bovine serum albumin. […] Cells were washed in PBS mounted with DAKO mounting medium and observed under the fluorescence microscope. […]

PBMCs = experiment: Lymphocyte populations in treated PBMCs; format: cell-based, human
[2] = system: HIV RNA splicing in infected PBMCs; experiment: Sequence capture and 454 pyrosequencing of HIV RNA in infected PBMCs; format: cell-based, HIV-1
Procedure: To test whether Compound 1 influences the splicing of HIV RNA in infected cells, an array-based sequence capture was performed using a customized library probes targeting HIV sequences to get rid of cellular RNA. The probes were used to capture cDNAs prepared from infected treated and untreated PBMCs. After double capture, libraries were prepared and sequenced using 454 pyrosequencing (according to GS junior method manual). The average size of the reads around 400 bp allowed unambiguous assembly of viral genome from untreated sample (after 3 and 6 days of infection) using reads that were not mapped to human genome (hg19). All sequencing data were analysed using gsnap, as detailed in Wu et al. (Fast and SNP-tolerant detection of complex variants and splicing in short reads. Bioinformatics 26, 873-881 (2010)).

[3] = system: alternative splicing events of endogenous genes; experiment: RT-PCR analysis of global alternative splicing events in PBMC samples; format: cell-based, human
Text: Quantification of non-viral RNA splicing is achieved using the protocols detailed in Klinck et al. (Multiple alternative splicing markers for ovarian cancer. Cancer Res. 68, 657-663 (2008)) and Venables et al. (Cancer-associated regulation of alternative splicing. Nat. Struct. Mol. Biol. 16, 670-676 (2009)).
These 382 alternative splicing events (ASEs) represent a high throughput random snapshot of global alterations of alternative splicing. High throughput PCR analysis of these (essentially random) 382 ASEs on multiple PBMC samples was performed, either from untreated (cells) or treated with DMSO, Compound 1 or with the control antiviral drug (Darunavir). Analysis of the data allowed further stringent quality controls; ASEs were only considered if >75% of the products ran at the expected mobilities (i.e. if the reactions were pure) and if total expected PCR concentration was higher than 20 nM (i.e. if the reactions were strong) which led to 264 remaining ASEs.

Which results are given for `FC(F)(F)Oc1ccc(Nc2ccc3cccc(Cl)c3n2)cc1` [Compound 1, 8-chloro-N-(4-(trifluoromethoxy)phenyl)quinolin-2-amine]?
effect on reporter cells [1]: no effect; effect on the different populations of lymphocytes present in PBMCs (PBMCs): did not alter; coverage of viral genome ([2]; 3 days post infection): 4149 reads; fraction of reads corresponding to splice junctions ([2]; 3 days post-infection): 17.4%; fraction of reads corresponding to splice junctions ([2]; 6 days post-infection): 13.3%; number of reads ([2]; 6 days post-infection): 20 585; global effect on pre-mRNA splicing [3]: no global effect
